Assay results as given in patent US4369188A, “2-Thioxobenz[cd]indole-1(2H)-acetic acid derivatives” (Ayerst, McKenna & Harrison Inc., priority 1981, dated 1983).

Columns and labels:
[1] = biological target: T1, lens aldose reductase (Bos taurus, UniProt P16116); assay: in vitro aldose reductase inhibition (modified Hayman and Kinoshita procedure); assay type: biochemical; conditions: enzyme from bovine lens, read-out: % Inhibition at Different Molar Concentrations (in vitro); for inhibition at 10 µM: 10^-5 molar; for inhibition at 1 µM: 10^-6 molar; for inhibition at 0.1 µM: 10^-7 molar
T1 construct: the preparation of the enzyme from bovine lens; from tissue; host or cells: bovine lens
Excerpt: In the present case, the procedure of Hayman and Kinoshita is modified in that the final chromatography step is omitted in the preparation of the enzyme from bovine lens.
Table 1 gives the results of the compounds of formula I or an addition salt thereof when evaluated in the above in vitro test.

[2] = system: dulcitol accumulation in the lens; assay: galactosemic rats: decrease of dulcitol accumulation in the lens; assay type: in vivo, rat (Sprague-Dawley)
Excerpt: The aldose reductase inhibiting property of a compound of formula I and its utilization in diminishing and alleviating diabetic complications also are demonstrable in experiments using galactosemic rats, see D. Dvornik et al., Science, 182, 1146 (1973). Such experiments are exemplified hereinbelow after the listing of the following general comments pertaining to these experiments:
(a) Four or more groups of six male rats, 50-70 g, Sprague-Dawley strain, were used. The first group, the control group, was fed a mixture of laboratory chow (rodent laboratory chow, Purina) and glucose at 20% (w/w %) concentration. The untreated galactosemic group was fed a similar diet in which galactose is substituted for glucose. The other groups were fed diets containing various amounts of the compound of formula I in the galacetose containing diet. The concentration of galactose in the diet of the treated groups was the same as that for the untreated galactosemic group.
(b) After four days, the animals were killed by decapitation. The eyeballs were removed and punctured with a razor blade; the freed lenses were rolled gently on filter paper and weighed. The sciatic nerves were dissected as completely as possible and weighed. Both tissues were frozen and kept up to two weeks before being analyzed for dulcitol.
(c) The tissues were homoginized in 5% (w/v) trichloroacetic acid and the polyol determination on the extracts were performed by a modification of the procedure of M. Kraml and L. Cosyns, Clin. Biochem., 2, 373 (1969). Only two minor reagent changes were made: (a) The rinsing mixture was an aqueous 5% (w/v) trichloroacetic acid solution and (b) the stock solution was prepared by dissolving 25 mg of dulcitol in 100 ml of an aqueous trichloroacetic acid solution. [N.B.: For each experiment the average value found in the tissued from rats fed the glucose diet was subtracted from the individual values found in the corresponding rat tissue to obtain the amount of polyol accumulated].
The results obtained are exemplified in Table 2, wherein the values under L and N respectively, represent the percentage decreases of dulcitol accumulation in the tissues of the lens, and sciatic nerve for treated rats as compared to controls.

[3] = 131 mg/kg/day in galactose diet, 4 days, vs controls

| Compound | inhibition at 10 µM [1] [%] | inhibition at 1 µM [1] [%] | inhibition at 0.1 µM [1] [%] | percentage decrease of dulcitol accumulation in lens (L) ([2]; 150 mg/kg/day in galactose diet, 4 days, vs controls) [%] | percentage decrease of dulcitol accumulation in lens (L) ([2]; 165 mg/kg/day in galactose diet, 4 days, vs controls) [%] | percentage decrease of dulcitol accumulation in lens (L) [2, 3] [%] | percentage decrease of dulcitol accumulation in lens (L) ([2]; 128 mg/kg/day in galactose diet, 4 days, vs controls) [%] | percentage decrease of dulcitol accumulation in lens (L) ([2]; 144 mg/kg, 96 h) [%] | percentage decrease of dulcitol accumulation in lens (L) ([2]; 134 mg/kg/day in galactose diet, 4 days, vs controls) [%] | percentage decrease of dulcitol accumulation in lens (L) ([2]; 141 mg/kg/day in galactose diet, 4 days, vs controls) [%] |
| --- | --- | --- | --- | --- | --- | --- | --- | --- | --- | --- |
| O=C(O)CN1C(=S)c2cccc3cccc1c23 [2-thioxo-benz[cd]indole-1(2H)-acetic acid] | 93 | 87 | 61 |  | 18 |  |  |  |  |  |
| O=C(O)CN1C(=S)c2cccc3c(Br)cc(Br)c1c23 [6,8-dibromo-2-thioxo-benz[cd]indole-1(2H)-acetic acid] | 89 | 56 | 13 |  |  | 9 |  |  |  |  |
| O=C(O)CN1C(=S)c2cccc3c(Cl)cc(Cl)c1c23 [6,8-dichloro-2-thioxo-benz[cd]indole-1(2H)-acetic acid] | 94 | 76 | 30 |  |  |  | 18 |  |  |  |
| O=C(O)CN1C(=S)c2cccc3c(Br)ccc1c23 [6-Bromo-2-thioxo-benz[cd]indole-1(2H)-acetic Acid] | 95 | 91 | 79 |  |  | 27 |  |  |  |  |
| O=C(O)CN1C(=S)c2cccc3c(F)ccc1c23 [6-fluoro-2-thioxo-benz[cd]indole-1(2H)-acetic acid] | 94 | 88 | 56 |  |  |  |  |  |  |  |
| O=C(O)CN1C(=S)c2cccc3c(I)ccc1c23 [6-iodo-2-thioxo-benz[cd]indole-1(2H)-acetic acid] | 93 | 91 | 81 |  |  |  |  |  |  | 32 |

Second part, led by results:

| inhibition at 10 µM [1] [%] | inhibition at 1 µM [1] [%] | inhibition at 0.1 µM [1] [%] | Compound | percentage decrease of dulcitol accumulation in lens (L) ([2]; 150 mg/kg/day in galactose diet, 4 days, vs controls) [%] | percentage decrease of dulcitol accumulation in lens (L) ([2]; 165 mg/kg/day in galactose diet, 4 days, vs controls) [%] | percentage decrease of dulcitol accumulation in lens (L) [2, 3] [%] | percentage decrease of dulcitol accumulation in lens (L) ([2]; 128 mg/kg/day in galactose diet, 4 days, vs controls) [%] | percentage decrease of dulcitol accumulation in lens (L) ([2]; 144 mg/kg, 96 h) [%] | percentage decrease of dulcitol accumulation in lens (L) ([2]; 134 mg/kg/day in galactose diet, 4 days, vs controls) [%] | percentage decrease of dulcitol accumulation in lens (L) ([2]; 141 mg/kg/day in galactose diet, 4 days, vs controls) [%] |
| --- | --- | --- | --- | --- | --- | --- | --- | --- | --- | --- |
| 83 | 29 |  | NCCOC(=O)CN1C(=S)c2cccc3cccc1c23 [2-Thioxo-benz[cd]indole-1(2H)-acetic Acid, 2-Amino-ethyl Ester] |  |  |  |  |  |  |  |
| 66 | 11 |  | CCOC(=O)CN1C(=S)c2cccc3cccc1c23 [2-thioxo-benz[cd]indole-1(2H)-acetic acid, ethyl ester] | 11 |  |  |  |  |  |  |
| 91 | 70 | 14 | CN(C)CCCOC(=O)CN1C(=S)c2cccc3c(Cl)ccc1c23 [6-Chloro-2-thioxo-benz[cd]indole-1(2H)-acetic Acid, 3-Dimethylamino-1propylEster] |  |  |  |  | 28 |  |  |
| 96 | 91 | 66 | O=C(O)CN1C(=S)c2cccc3c(Cl)ccc1c23 [6-chloro-2-thioxo-benz[cd]indole-1(2H)-acetic acid] |  |  |  |  |  | 27 |  |
